Reference: patent publication US20120141384A1, “ANTIBACTERIAL CONJUGATED BORONIC ACIDS AND PHARMACEUTICAL COMPOSITIONS THEREOF” (priority 2008, published 2012)

Assays:
[1] = tested on: Escherichia coli (ATCC No. 8739); experiment: Antimicrobial efficacy (challenge) test, plate count; type: cell-based; settings: for No. of Surviving Microorganisms CFU/g: 25° C., initial contamination 2.8 × 10^5 CFU/g; for antimicrobial effect in words: following one day of exposure
Protocol: (§1) 2-FBP was obtained from Sigma Aldrich. Test Procedure: The test consisted of challenging the test solutions with specified microorganisms, storing the inoculated preparations at a prescribed temperature, removing the inoculated samples at specified intervals of time and counting the number of viable organisms in the withdrawn samples using a plate count procedure. The technical details were as follows: • The test was conducted in 20 g samples. • Each sample was separately inoculated by one of the test organisms. • The inoculated containers were incubated at 25° C. together with an uninoculated sample. • The inoculated container with P. acnes was incubated under anaerobic conditions at the same temperature. • The culture media for P. acnes was Brain Heart Infusion Agar instead of Tryptic Soy Agar. Formulations were challenged by introducing the following microorganisms: Escherichia coli (ATCC No. 8739) Counting of microorganisms in the inoculated samples was performed 1, 2 and 7 days following inoculation. The number of colony-forming units (cfu/g) determined at each incubation time point was compared to the number of cfu/g measured in non-inoculated control samples of FPB solutions. Antimicrobial effectiveness results, expressed as colony forming units of surviving microorganisms in the FPB solutions (cfu/g), are detailed in Tables 1-3.

[2] = tested on: Staphylococcus aureus (ATCC No. 6538); experiment: as above; type: cell-based; settings: for No. of Surviving Microorganisms CFU/g: 25° C., initial contamination 5.2 × 10^5 CFU/g; for antimicrobial effect in words: following one day of exposure
Protocol: as §1, with “The purpose of this study was to assess the antimicrobial efficacy of 2-Formylphenyl boronic acid (FPB) aqueous solutions, in different concentrations of 10 mM, 20 mM and 40 mM. 2-FBP” for “2-FBP”, “Staphylococcus aureus” for “Escherichia coli”, “6538)” for “8739)”

[3] = tested on: Propionbacterium acnes ATCC 11827; experiment: Antimicrobial efficacy (challenge) test, plate count, anaerobic incubation; type: cell-based; settings: for No. of Surviving Microorganisms CFU/g: 25° C. anaerobic, initial contamination 4.1 × 10^5 CFU/g; for antimicrobial effect in words: following one day of exposure
Protocol: as §1, with “The purpose of this study was to assess the antimicrobial efficacy of 2-Formylphenyl boronic acid (FPB) aqueous solutions, in different concentrations of 10 mM, 20 mM and 40 mM. 2-FBP” for “2-FBP”, “Propionbacterium acnes ATCC 11827” for “Escherichia coli (ATCC No. 8739)”

[4] = Stability of 2-FBA under formulation conditions, amount by chromatography; type: physicochemical
Protocol: 2-Formylphenyl Boronic Acid (2-FBA) was exposed to various formulation conditions, in order to assess its optimized formulation stability properties. The amount of 2-FBA was assessed prior to the experiment and following the exposure to the different conditions by chromatography. The conditions are detailed in the following Table.

[5] = Solubility and compatibility of FPB in the carrier; type: physicochemical; settings: for solubility in the carrier: 20 mM and 40 mM
Source text: The active agent FPB is soluble in the carrier.

[6] = tested on: Staphylococcus aureus (ATCC No. 6538); experiment: Antimicrobial efficacy (challenge) test, plate count; type: cell-based; settings: 30 mM FPB aqueous solution, 25° C., initial contamination 5.2 × 10^5 CFU/g
[7] = tested on: Propionbacterium acnes ATCC 11827; experiment: Antimicrobial efficacy (challenge) test, plate count, anaerobic incubation; type: cell-based; settings: 30 mM FPB aqueous solution, 25° C. anaerobic, initial contamination 4.1 × 10^5 CFU/g
[8] = 10 mM FPB aqueous solution, 1 week
[9] = 10 mM FPB aqueous solution, 1 days
[10] = 10 mM FPB aqueous solution, 2 days
[11] = 20 mM FPB aqueous solution, 1 week
[12] = 20 mM FPB aqueous solution, 1 days
[13] = 20 mM FPB aqueous solution, 2 days
[14] = Solution 1 (10 mM FPB), within two days of exposure
[15] = solutions, concentrations of 10 mM, 20 mM and 40 mM

In the case of `O=Cc1ccccc1B(O)O` [FPB, 2-Formylphenyl boronic acid], the “No. of Surviving Microorganisms CFU/g” value [1, 8] is reported as under 10 CFU/g, the “No. of Surviving Microorganisms CFU/g” value [1, 9] is reported as 6.4 × 10^4 CFU/g and the “No. of Surviving Microorganisms CFU/g” value [1, 10] is reported as under 10 CFU/g. The “No. of Surviving Microorganisms CFU/g” value [1, 11] was under 10 CFU/g, the “No. of Surviving Microorganisms CFU/g” value [1, 12] was 7.6 × 10^3 CFU/g and the “No. of Surviving Microorganisms CFU/g” value [1, 13] was under 10 CFU/g. The “No. of Surviving Microorganisms CFU/g” value ([1]; 30 mM FPB aqueous solution, 1 week) was under 10 CFU/g, the “No. of Surviving Microorganisms CFU/g” value ([1]; 30 mM FPB aqueous solution, 1 days) was under 10 CFU/g and the “No. of Surviving Microorganisms CFU/g” value ([1]; 30 mM FPB aqueous solution, 2 days) was under 10 CFU/g. For the same compound, the “log reduction of the count from the initial load” value [1, 14] was 2.0 log, the “antimicrobial effect in words” value ([1]; Solution 2 (20 mM FBA)) was “completely eradicated” and the “antimicrobial effect in words” value ([1]; Solution 3 (40 mM FBA)) was “completely eradicated”. The “effectiveness (conclusion)” value [1, 15] was “effective”, the “No. of Surviving Microorganisms CFU/g” value [2, 8] was under 10 CFU/g and the “No. of Surviving Microorganisms CFU/g” value [2, 9] was 4.5 × 10^4 CFU/g. For the same compound, the “No. of Surviving Microorganisms CFU/g” value [2, 10] was 5.4 × 10^2 CFU/g, the “No. of Surviving Microorganisms CFU/g” value [2, 11] was under 10 CFU/g and the “No. of Surviving Microorganisms CFU/g” value [2, 12] was under 10 CFU/g. For the same compound, the “No. of Surviving Microorganisms CFU/g” value [2, 13] was under 10 CFU/g, the “log reduction of the count from the initial load” value [2, 14] was 2.0 log and the “antimicrobial effect in words” value ([2]; Solution 2 (20 mM FBA)) was “completely eradicated”. The “antimicrobial effect in words” value ([2]; Solution 3 (40 mM FBA)) was “completely eradicated”, the “effectiveness (conclusion)” value [2, 15] was “effective” and the “No. of Surviving Microorganisms CFU/g” value [3, 8] was under 10 CFU/g. For the same compound, the “No. of Surviving Microorganisms CFU/g” value [3, 9] was under 10 CFU/g, the “No. of Surviving Microorganisms CFU/g” value [3, 10] was under 10 CFU/g and the “No. of Surviving Microorganisms CFU/g” value [3, 11] was under 10 CFU/g. For the same compound, the “No. of Surviving Microorganisms CFU/g” value [3, 12] was under 10 CFU/g, the “No. of Surviving Microorganisms CFU/g” value [3, 13] was under 10 CFU/g and the “antimicrobial effect in words” value ([3]; Solution 1 (10 mM FPB)) was “completely destroyed”. For the same compound, the “antimicrobial effect in words” value ([3]; Solution 2 (20 mM FBA)) was “completely eradicated”, the “antimicrobial effect in words” value ([3]; Solution 3 (40 mM FBA)) was “completely eradicated” and the “effectiveness (conclusion)” value [3, 15] was “effective”. The stability in words ([4]; UV light) was “relatively stable”, the stability in words ([4]; heat) was “relatively stable” and the stability in words ([4]; in the presence of H2O2) was “underwent degradation”. For the same compound, the stability in words ([4]; in the presence of HCl (0.1 N)) was “underwent degradation”, the stability in words ([4]; in the presence of NaOH (0.1 N)) was “relatively stable” and the “interference with foam formation” value ([5]; emulsion carrier (Example 2)) was “does not interfere”. For the same compound, the “interference with the formation of an emulsion” value ([5]; emulsion carrier (Example 2)) was “does not interfere”, the “solubility in the carrier” value ([5]; emulsion carrier (Example 2)) was “soluble” and the “interference with foam formation” value ([5]; gel carrier (Example 3)) was “does not interfere”. The “solubility in the carrier” value ([5]; gel carrier (Example 3)) was “soluble”, the “No. of Surviving Microorganisms CFU/g” value ([6]; 1 week) was under 10 CFU/g and the “No. of Surviving Microorganisms CFU/g” value ([6]; 1 days) was under 10 CFU/g. For the same compound, the “No. of Surviving Microorganisms CFU/g” value ([6]; 2 days) was under 10 CFU/g, the “No. of Surviving Microorganisms CFU/g” value ([7]; 1 week) was under 10 CFU/g and the “No. of Surviving Microorganisms CFU/g” value ([7]; 1 days) was under 10 CFU/g. For the same compound, the “No. of Surviving Microorganisms CFU/g” value ([7]; 2 days) was under 10 CFU/g.
